Source: ChEMBL document CHEMBL1201862, “PubChem BioAssay data set” (2004)
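Exposure lasted 48 hours, with cells grown in 96-well plates and compounds tested at five concentrations. Here, GI50 denotes the concentration required for 50% inhibition of growth.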 Calls of active or inactive are those of the source. No stated cut-off is given here; in the data, active = GI50 up to about 1.1 µM and inactive = higher.

What was measured:
Assay in all cases: growth of human tumour cells (NCI), 48 h
[1] = test system: SF-268
[2] = test system: M14
[3] = test system: U-251
[4] = test system: KM12
[5] = test system: HCT-116
[6] = test system: SK-MEL-5
[7] = test system: HL-60
[8] = test system: SNB-75
[9] = test system: NCI-H522
[10] = test system: BT-549
[11] = test system: MDA-MB-435
[12] = test system: MOLT-4
[13] = test system: CCRF-CEM
[14] = test system: PC-3
[15] = test system: SN12C
[16] = test system: MCF7
[17] = test system: HOP-62
[18] = test system: OVCAR-8
[19] = test system: UO-31
[20] = test system: SK-OV-3
[21] = test system: TK-10
[22] = test system: UACC-62
[23] = test system: UACC-257
[24] = test system: OVCAR-5
[25] = test system: SF-539
[26] = test system: EKVX
[27] = test system: RPMI-8226
[28] = test system: CAKI-1
[29] = test system: NCI-H226
[30] = test system: RXF 393
[31] = test system: OVCAR-3
[32] = test system: NCI-H23
[33] = test system: LOX IMVI
[34] = test system: HOP-92
[35] = test system: SF-295
[36] = test system: T47D
[37] = test system: COLO 205
[38] = test system: HCC 2998
[39] = test system: NCI-H460
[40] = test system: SK-MEL-2
[41] = test system: IGROV-1
[42] = test system: OVCAR-4
[43] = test system: Hs-578T
[44] = test system: SNB-19
[45] = test system: A549
[46] = test system: SR
[47] = test system: HCT-15
[48] = test system: SW-620
[49] = test system: A498
[50] = test system: HT-29
[51] = test system: SK-MEL-28
[52] = test system: ACHN
[53] = test system: NCI/ADR-RES
[54] = test system: 786-0
[55] = test system: K562
[56] = test system: MDA-MB-231
[57] = test system: DU-145
[58] = test system: MDA-N
[59] = test system: Malme-3M

In the case of C=C(Cl)COC(=O)Nc1cccc(Cl)c1, the GI50 [1] is reported as 40.1 µM (inactive), the GI50 [2] is reported as 35.4 µM (inactive) and the GI50 [3] is reported as 34.4 µM (inactive). The GI50 [4] was 31.6 µM (inactive), the GI50 [5] was 27 µM (inactive) and the GI50 [6] was 18 µM (inactive). The GI50 [7] was 24.4 µM (inactive), the GI50 [8] was 26.4 µM (inactive) and the GI50 [9] was 25.1 µM (inactive). For the same molecule, the GI50 [10] was 26.7 µM (inactive), the GI50 [11] was 30.1 µM (inactive) and the GI50 [12] was 57.5 µM (inactive). For the same molecule, the GI50 [13] was 28.2 µM (inactive), the GI50 [14] was 29 µM (inactive) and the GI50 [15] was 33.8 µM (inactive). For the same molecule, the GI50 [16] was 28.1 µM (inactive), the GI50 [17] was 38.3 µM (inactive) and the GI50 [18] was 32.6 µM (inactive). For the same molecule, the GI50 [19] was 12 µM (inactive), the GI50 [20] was 72.8 µM (inactive) and the GI50 [21] was 60 µM (inactive). The GI50 [22] was 20.6 µM (inactive), the GI50 [23] was 31 µM (inactive) and the GI50 [24] was 48.2 µM (inactive). For the same molecule, the GI50 [25] was 54.8 µM (inactive), the GI50 [26] was 22.5 µM (inactive) and the GI50 [27] was 39.4 µM (inactive). For the same molecule, the GI50 [28] was 31.9 µM (inactive), the GI50 [29] was 44.8 µM (inactive) and the GI50 [30] was 25 µM (inactive). For the same molecule, the GI50 [31] was 28.1 µM (inactive), the GI50 [32] was 30.4 µM (inactive) and the GI50 [33] was 35.6 µM (inactive). For the same molecule, the GI50 [34] was 22.7 µM (inactive), the GI50 [35] was 25.7 µM (inactive) and the GI50 [36] was 22.9 µM (inactive). The GI50 [37] was 31.7 µM (inactive), the GI50 [38] was 37.1 µM (inactive) and the GI50 [39] was 32.6 µM (inactive). The GI50 [40] was 22.5 µM (inactive), the GI50 [41] was 26.7 µM (inactive) and the GI50 [42] was 16.2 µM (inactive). The GI50 [43] was 34 µM (inactive), the GI50 [44] was 35.6 µM (inactive) and the GI50 [45] was 30.3 µM (inactive). For the same molecule, the GI50 [46] was 51.1 µM (inactive), the GI50 [47] was 28.6 µM and the GI50 [48] was 39.3 µM (inactive). The GI50 [49] was 23.4 µM (inactive), the GI50 [50] was 33.3 µM (inactive) and the GI50 [51] was 42.1 µM (inactive). The GI50 [52] was 34.9 µM (inactive), the GI50 [53] was 29.3 µM (inactive) and the GI50 [54] was 27.4 µM (inactive). The GI50 [55] was 54.6 µM (inactive), the GI50 [56] was 40.4 µM (inactive) and the GI50 [57] was 31.1 µM (inactive). For the same molecule, the GI50 [58] was 34.2 µM (inactive).

CCOC(=O)C1C(c2ccc(OC)cc2)c2c(n[nH]c2O)CC1(C)O (stereo not drawn) was tested, and the GI50 [1] was > 100 µM (inactive), the GI50 [2] was > 100 µM (inactive) and the GI50 [3] was > 100 µM (inactive). The GI50 [4] was > 100 µM (inactive), the GI50 [5] was > 100 µM (inactive) and the GI50 [6] was > 100 µM (inactive). The GI50 [7] was > 100 µM (inactive), the GI50 [8] was > 100 µM (inactive) and the GI50 [9] was > 100 µM (inactive). For the same molecule, the GI50 [10] was > 100 µM (inactive), the GI50 [11] was > 100 µM (inactive) and the GI50 [12] was > 100 µM (inactive). For the same molecule, the GI50 [13] was > 100 µM (inactive), the GI50 [14] was > 100 µM (inactive) and the GI50 [15] was > 100 µM (inactive). The GI50 [16] was > 100 µM (inactive), the GI50 [17] was > 100 µM (inactive) and the GI50 [18] was > 100 µM (inactive). The GI50 [19] was > 100 µM (inactive), the GI50 [21] was > 100 µM (inactive) and the GI50 [22] was > 100 µM (inactive). For the same molecule, the GI50 [23] was > 100 µM (inactive), the GI50 [24] was > 100 µM (inactive) and the GI50 [25] was > 100 µM (inactive). The GI50 [26] was > 100 µM (inactive), the GI50 [27] was > 100 µM (inactive) and the GI50 [28] was > 100 µM (inactive). The GI50 [31] was > 100 µM (inactive), the GI50 [59] was > 100 µM (inactive) and the GI50 [32] was > 100 µM (inactive). The GI50 [33] was > 100 µM (inactive), the GI50 [34] was > 100 µM (inactive) and the GI50 [35] was 45.1 µM (inactive). For the same molecule, the GI50 [36] was > 100 µM (inactive), the GI50 [37] was > 100 µM (inactive) and the GI50 [38] was > 100 µM (inactive). The GI50 [39] was > 100 µM (inactive), the GI50 [40] was > 100 µM (inactive) and the GI50 [41] was > 100 µM (inactive). For the same molecule, the GI50 [42] was > 100 µM (inactive), the GI50 [43] was > 100 µM (inactive) and the GI50 [44] was > 100 µM (inactive). For the same molecule, the GI50 [45] was > 100 µM (inactive), the GI50 [46] was > 100 µM (inactive) and the GI50 [47] was greater than 100 µM. For the same molecule, the GI50 [48] was > 100 µM (inactive), the GI50 [49] was > 100 µM (inactive) and the GI50 [50] was > 100 µM (inactive). For the same molecule, the GI50 [51] was > 100 µM (inactive), the GI50 [52] was > 100 µM (inactive) and the GI50 [53] was > 100 µM (inactive). For the same molecule, the GI50 [54] was > 100 µM (inactive), the GI50 [56] was > 100 µM (inactive) and the GI50 [57] was > 100 µM (inactive). The GI50 [58] was > 100 µM (inactive).
